Results on four compounds are retold here after article PMC10004634 (PLOS ONE, 2023).

Read-outs that look alike come from different tables or passages of the source.

The target in one assay is T1, PFCDPK1(P.falciparum) (Plasmodium falciparum, UniProt P62344).
T1 construct: gene CDPK1
Nature of the assay: biochemical.

For a further assay, the target named is MAP4K5 (Homo sapiens, UniProt Q9Y4K4). The experiment in a line: biochemical. Further details: KINOMEscan scanMAX competition binding, DNA-tagged kinases, qPCR read-out, percent control at 300 nM.
Another assay concerns the target RAF1 (Homo sapiens, UniProt P04049). Nature of the assay: biochemical. On the set-up: KINOMEscan scanMAX competition binding, DNA-tagged kinases, qPCR read-out, percent control at 300 nM.
The target in the next assay is ANKK1 (Homo sapiens, UniProt Q8NFD2). The experiment in a line: biochemical. On the set-up: KINOMEscan scanMAX competition binding, DNA-tagged kinases, qPCR read-out, percent control at 300 nM.
ANKK1, sequence (Q8NFD2 whole entry): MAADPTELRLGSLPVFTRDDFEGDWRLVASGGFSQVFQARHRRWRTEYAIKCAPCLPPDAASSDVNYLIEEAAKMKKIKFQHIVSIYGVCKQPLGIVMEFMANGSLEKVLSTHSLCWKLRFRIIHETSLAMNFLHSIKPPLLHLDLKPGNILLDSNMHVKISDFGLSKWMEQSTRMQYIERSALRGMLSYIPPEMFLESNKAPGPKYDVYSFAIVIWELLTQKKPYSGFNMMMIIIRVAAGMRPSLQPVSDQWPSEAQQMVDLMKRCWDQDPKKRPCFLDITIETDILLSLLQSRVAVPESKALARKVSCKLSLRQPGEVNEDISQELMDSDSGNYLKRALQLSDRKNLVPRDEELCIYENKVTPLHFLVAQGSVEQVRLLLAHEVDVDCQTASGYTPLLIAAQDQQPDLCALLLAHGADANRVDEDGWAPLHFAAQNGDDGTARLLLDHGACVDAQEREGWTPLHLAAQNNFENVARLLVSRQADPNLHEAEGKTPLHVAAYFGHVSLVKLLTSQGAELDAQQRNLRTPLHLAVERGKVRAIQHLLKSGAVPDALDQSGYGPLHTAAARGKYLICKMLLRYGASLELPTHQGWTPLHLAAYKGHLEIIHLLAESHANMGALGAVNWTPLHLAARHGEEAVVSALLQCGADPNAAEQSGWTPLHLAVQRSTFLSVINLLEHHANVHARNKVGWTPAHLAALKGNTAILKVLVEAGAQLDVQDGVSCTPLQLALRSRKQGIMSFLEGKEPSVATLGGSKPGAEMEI
The next assay addresses T2, JNK2 (Homo sapiens, UniProt P45984).
T2 construct: gene MAPK9
Nature of the assay: biochemical. On the set-up: KINOMEscan scanMAX competition binding, DNA-tagged kinases, qPCR read-out, percent control at 300 nM.

The target of assay [1] is T3, RPS6KA5(Kin.Dom.2-C-terminal) (Homo sapiens, UniProt O75582).
T3 construct: Kin.Dom.2-C-terminal
The experiment in a line: biochemical. Further details: KINOMEscan scanMAX competition binding, DNA-tagged kinases, qPCR read-out, percent control at 300 nM.

Another assay addresses BMPR1A (Homo sapiens, UniProt P36894). Nature of the assay: biochemical. Further details: KINOMEscan scanMAX competition binding, DNA-tagged kinases, qPCR read-out, percent control at 300 nM.
Another assay has as its target MAPKAPK2 (Homo sapiens, UniProt P49137). Nature of the assay: biochemical. On the set-up: KINOMEscan scanMAX competition binding, DNA-tagged kinases, qPCR read-out, percent control at 300 nM.
The target in the next assay is GSK3A (Homo sapiens, UniProt P49840). The experiment in a line: biochemical. On the set-up: KINOMEscan scanMAX competition binding, DNA-tagged kinases, qPCR read-out, percent control at 300 nM.
GSK3A, sequence (P49840 whole entry): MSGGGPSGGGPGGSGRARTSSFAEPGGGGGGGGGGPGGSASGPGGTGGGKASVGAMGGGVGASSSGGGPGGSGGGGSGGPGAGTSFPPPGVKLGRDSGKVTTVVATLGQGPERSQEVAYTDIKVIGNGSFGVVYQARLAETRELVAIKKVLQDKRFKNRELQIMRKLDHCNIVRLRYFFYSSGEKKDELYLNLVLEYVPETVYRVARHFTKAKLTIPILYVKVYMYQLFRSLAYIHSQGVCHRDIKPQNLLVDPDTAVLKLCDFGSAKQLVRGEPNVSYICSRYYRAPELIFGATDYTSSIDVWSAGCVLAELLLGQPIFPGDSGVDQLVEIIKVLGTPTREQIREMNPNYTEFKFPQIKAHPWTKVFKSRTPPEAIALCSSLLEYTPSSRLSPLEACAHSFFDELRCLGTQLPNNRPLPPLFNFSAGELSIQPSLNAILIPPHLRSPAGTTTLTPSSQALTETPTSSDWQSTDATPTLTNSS
A further assay deals with EPHA7 (Homo sapiens, UniProt Q15375). Nature of the assay: biochemical. On the set-up: KINOMEscan scanMAX competition binding, DNA-tagged kinases, qPCR read-out, percent control at 300 nM.
The target of a further assay is T4, ADCK4 (Homo sapiens, UniProt Q96D53).
T4 construct: gene COQ8B
T4 sequence (Q96D53 whole entry): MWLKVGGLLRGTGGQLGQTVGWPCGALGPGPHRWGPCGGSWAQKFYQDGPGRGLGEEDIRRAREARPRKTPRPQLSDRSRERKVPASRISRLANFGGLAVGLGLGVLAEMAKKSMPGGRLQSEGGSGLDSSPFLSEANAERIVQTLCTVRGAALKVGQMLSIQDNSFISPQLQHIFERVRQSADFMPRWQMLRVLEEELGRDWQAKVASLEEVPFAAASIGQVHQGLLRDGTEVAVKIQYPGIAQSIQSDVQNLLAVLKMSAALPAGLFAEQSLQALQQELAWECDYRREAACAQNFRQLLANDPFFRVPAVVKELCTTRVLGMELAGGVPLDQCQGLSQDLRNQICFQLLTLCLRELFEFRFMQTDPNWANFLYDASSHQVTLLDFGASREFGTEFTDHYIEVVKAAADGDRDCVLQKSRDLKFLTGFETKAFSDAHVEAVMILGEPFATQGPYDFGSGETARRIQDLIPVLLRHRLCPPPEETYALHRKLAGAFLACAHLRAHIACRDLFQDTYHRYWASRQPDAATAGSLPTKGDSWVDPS
The experiment in a line: biochemical. On the set-up: KINOMEscan scanMAX competition binding, DNA-tagged kinases, qPCR read-out, percent control at 300 nM.

For assay [2], the target named is T5, RPS6KA4(Kin.Dom.2-C-terminal) (Homo sapiens, UniProt O75676).
T5 construct: Kin.Dom.2-C-terminal
Nature of the assay: biochemical. Further details: KINOMEscan scanMAX competition binding, DNA-tagged kinases, qPCR read-out, percent control at 300 nM.

A further assay deals with T6, PKAC-alpha (Homo sapiens, UniProt P17612).
T6 construct: gene PRKACA
Nature of the assay: biochemical. Further details: KINOMEscan scanMAX competition binding, DNA-tagged kinases, qPCR read-out, percent control at 300 nM.

A further assay concerns the target T7, TXK (Homo sapiens, UniProt P42681).
T7 sequence (P42681 1-527): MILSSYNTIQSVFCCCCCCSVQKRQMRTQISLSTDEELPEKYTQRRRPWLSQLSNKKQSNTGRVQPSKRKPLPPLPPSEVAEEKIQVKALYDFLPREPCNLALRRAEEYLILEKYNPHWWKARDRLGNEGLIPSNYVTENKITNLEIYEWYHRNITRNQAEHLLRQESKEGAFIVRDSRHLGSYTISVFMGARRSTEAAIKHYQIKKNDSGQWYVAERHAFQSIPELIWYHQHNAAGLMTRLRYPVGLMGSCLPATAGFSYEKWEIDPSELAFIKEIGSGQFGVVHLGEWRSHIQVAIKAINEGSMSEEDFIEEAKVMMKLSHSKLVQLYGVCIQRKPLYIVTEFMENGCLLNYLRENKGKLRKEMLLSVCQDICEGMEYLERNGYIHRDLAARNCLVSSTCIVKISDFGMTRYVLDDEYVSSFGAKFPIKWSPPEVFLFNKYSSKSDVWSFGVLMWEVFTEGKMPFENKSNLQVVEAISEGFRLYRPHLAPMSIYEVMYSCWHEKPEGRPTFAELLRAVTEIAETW
Nature of the assay: Z'-Lyte kinase inhibition assay. The assay is classed as biochemical. On the set-up: purchased Thermo Fisher Scientific (Invitrogen Z'-Lyte service). The settings on record: 60 min preincubation. As for the experimental part:
In all the assays, each test compound was preincubated with peptide/kinase mixture or kinase/antibody mixture for 60 min at room temperature before adding the ATP solution or AlexaFluor labeled Tracer to initiate the 60-min incubation of the reactants.

Assay [3] has as its target T8, ABL1(T315I)-phosphorylated (Homo sapiens, UniProt P00519, T315I).
T8 construct: phosphorylated
Nature of the assay: biochemical. On the set-up: KINOMEscan scanMAX competition binding, DNA-tagged kinases, qPCR read-out, percent control at 300 nM.

In a further assay the target is CSK (Homo sapiens, UniProt P41240). Nature of the assay: mobility shift assay (MSA).
CSK, sequence (P41240 whole entry): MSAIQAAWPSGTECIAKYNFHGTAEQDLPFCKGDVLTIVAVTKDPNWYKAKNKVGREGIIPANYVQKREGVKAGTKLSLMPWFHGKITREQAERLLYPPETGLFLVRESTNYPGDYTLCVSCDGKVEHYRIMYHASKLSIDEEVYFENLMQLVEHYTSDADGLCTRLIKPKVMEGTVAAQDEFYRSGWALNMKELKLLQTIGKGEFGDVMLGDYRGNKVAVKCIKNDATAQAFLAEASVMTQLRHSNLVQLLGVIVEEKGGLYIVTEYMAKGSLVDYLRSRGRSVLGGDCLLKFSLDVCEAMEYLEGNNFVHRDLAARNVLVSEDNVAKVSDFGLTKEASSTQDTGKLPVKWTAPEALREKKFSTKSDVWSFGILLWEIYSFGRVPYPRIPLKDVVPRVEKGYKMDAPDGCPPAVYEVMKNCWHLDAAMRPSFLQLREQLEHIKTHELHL
The next assay addresses LYNa (Homo sapiens, UniProt P07948). The experiment in a line: mobility shift assay (MSA).
In another assay the target is LCK (Homo sapiens, UniProt P06239). Nature of the assay: mobility shift assay (MSA).
Assay [4] addresses T9, ABL1(F317L)-nonphosphorylated (Homo sapiens, UniProt P00519, F317L).
T9 construct: nonphosphorylated
The experiment in a line: biochemical. Further details: KINOMEscan scanMAX competition binding, DNA-tagged kinases, qPCR read-out, percent control at 300 nM.

The target of the next assay is WEE2 (Homo sapiens, UniProt P0C1S8). The experiment in a line: biochemical. Further details: KINOMEscan scanMAX competition binding, DNA-tagged kinases, qPCR read-out, percent control at 300 nM.
[5] abbreviates: read-out: Percent control / Zanubrutinib.
Setting [6] is: read-out: Percent control / Ibrutinib.
The mark [7] stands for this setting: read-out: Percent control / Acalabrutinib.

T1 sequence (P62344 whole entry): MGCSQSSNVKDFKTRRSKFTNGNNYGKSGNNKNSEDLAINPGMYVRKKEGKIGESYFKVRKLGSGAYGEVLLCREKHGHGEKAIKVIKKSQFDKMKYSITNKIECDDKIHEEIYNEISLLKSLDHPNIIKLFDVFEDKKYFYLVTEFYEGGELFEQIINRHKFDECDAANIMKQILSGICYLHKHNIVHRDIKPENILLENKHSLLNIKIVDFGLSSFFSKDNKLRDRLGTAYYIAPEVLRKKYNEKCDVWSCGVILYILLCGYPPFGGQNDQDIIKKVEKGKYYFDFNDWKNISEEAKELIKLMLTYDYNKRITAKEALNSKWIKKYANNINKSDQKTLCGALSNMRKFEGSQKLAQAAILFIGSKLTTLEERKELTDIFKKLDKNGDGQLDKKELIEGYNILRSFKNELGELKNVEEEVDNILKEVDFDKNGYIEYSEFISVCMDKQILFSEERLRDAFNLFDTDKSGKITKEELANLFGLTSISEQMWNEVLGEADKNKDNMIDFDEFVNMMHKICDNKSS
LYNa, sequence (P07948 whole entry): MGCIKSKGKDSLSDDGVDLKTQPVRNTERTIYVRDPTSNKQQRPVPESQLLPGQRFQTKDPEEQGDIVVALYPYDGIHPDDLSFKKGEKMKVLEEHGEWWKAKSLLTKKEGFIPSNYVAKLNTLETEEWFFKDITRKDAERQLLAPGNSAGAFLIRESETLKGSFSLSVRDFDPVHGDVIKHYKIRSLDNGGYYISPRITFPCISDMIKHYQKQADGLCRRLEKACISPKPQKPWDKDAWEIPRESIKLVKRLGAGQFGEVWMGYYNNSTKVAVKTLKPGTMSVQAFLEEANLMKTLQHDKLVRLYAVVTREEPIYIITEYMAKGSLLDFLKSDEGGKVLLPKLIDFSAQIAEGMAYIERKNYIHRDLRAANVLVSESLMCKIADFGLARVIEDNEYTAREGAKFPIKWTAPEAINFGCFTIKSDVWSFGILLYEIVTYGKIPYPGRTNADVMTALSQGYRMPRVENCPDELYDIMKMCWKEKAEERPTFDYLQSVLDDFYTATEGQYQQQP
MAPKAPK2, sequence (P49137 whole entry): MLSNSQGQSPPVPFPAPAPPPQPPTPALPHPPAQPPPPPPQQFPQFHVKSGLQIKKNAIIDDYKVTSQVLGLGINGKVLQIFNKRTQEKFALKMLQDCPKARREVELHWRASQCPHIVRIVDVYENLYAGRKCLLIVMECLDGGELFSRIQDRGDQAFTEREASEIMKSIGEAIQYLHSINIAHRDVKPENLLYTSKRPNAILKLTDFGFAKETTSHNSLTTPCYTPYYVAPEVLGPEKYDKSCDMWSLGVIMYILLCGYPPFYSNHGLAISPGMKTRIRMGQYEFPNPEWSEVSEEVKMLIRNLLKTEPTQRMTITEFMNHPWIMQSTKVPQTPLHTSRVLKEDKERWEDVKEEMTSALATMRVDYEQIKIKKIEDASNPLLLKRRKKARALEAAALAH
BMPR1A, sequence (P36894 whole entry): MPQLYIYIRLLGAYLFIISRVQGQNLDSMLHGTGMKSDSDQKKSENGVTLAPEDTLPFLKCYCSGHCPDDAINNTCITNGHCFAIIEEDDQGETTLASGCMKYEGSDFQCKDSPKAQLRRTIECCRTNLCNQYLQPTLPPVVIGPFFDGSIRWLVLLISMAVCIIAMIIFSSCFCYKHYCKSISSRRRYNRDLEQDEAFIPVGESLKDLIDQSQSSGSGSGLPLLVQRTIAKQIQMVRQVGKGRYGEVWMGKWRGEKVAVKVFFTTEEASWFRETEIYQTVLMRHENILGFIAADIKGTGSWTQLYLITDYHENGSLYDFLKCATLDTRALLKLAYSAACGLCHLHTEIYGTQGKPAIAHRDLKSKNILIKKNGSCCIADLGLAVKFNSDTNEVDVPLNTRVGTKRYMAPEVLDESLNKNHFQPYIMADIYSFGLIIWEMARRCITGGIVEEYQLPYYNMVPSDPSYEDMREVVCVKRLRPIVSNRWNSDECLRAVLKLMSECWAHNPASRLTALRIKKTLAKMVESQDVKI
T2 sequence (P45984 whole entry): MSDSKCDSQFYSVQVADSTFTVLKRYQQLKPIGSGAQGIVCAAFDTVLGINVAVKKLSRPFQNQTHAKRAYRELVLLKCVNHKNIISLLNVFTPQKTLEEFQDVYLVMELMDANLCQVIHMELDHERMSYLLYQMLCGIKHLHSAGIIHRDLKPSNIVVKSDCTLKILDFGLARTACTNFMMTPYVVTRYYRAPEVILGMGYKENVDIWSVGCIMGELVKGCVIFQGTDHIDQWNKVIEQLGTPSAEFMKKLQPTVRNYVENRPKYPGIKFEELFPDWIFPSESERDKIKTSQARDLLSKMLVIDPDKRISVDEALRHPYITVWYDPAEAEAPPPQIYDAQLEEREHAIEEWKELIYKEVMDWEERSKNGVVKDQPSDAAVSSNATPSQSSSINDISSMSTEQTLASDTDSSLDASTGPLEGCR

A word on the IC50: it is the concentration that gives 50% inhibition. For the compound `C=CC(=O)N1CCC([C@@H]2CCNc3c(C(N)=O)c(-c4ccc(Oc5ccccc5)cc4)nn32)CC1` [Zanubrutinib], at PFCDPK1(P.falciparum) (setting [5]), the remaining activity at 0.3 µM turned out to be 7.4%. The remaining binding at 0.3 µM was 98% on MAP4K5 (setting [5]); 88% at RAF1 (setting [5]); 100% on ANKK1 (setting [5]); 100% at JNK2 (setting [5]); 100% in [1] (setting [5]); 90% on BMPR1A (setting [5]). Also, the remaining binding at 0.3 µM on MAPKAPK2 (setting [5]) turned out to be 96%; on GSK3A (setting [5]), 98%; at EPHA7 (setting [5]) it was 97%; on ADCK4 (setting [5]), 100%; in [2] (setting [5]) it was 100%; at PKAC-alpha (setting [5]), 99%. For the same compound, the IC50 against TXK came out at 4.59 nM.
Regarding `CC#CC(=O)N1CC[C@@H](n2c(=O)n(-c3ccc(Oc4ccccc4)cc3)c3c(N)ncnc32)C1` [Tirabrutinib], the remaining binding at 0.3 µM in [3] (read-out: Percent control / Tirabrutinib) worked out at 73%. Besides, the IC50 at TXK came out at 54.5 nM; on CSK, 0.449 µM; on LYNa, 3.49 µM; at LCK, 788 nM.
Regarding `C=CC(=O)N1CCC[C@@H](n2nc(-c3ccc(Oc4ccccc4)cc3)c3c(N)ncnc32)C1` [Ibrutinib], the remaining activity at 0.3 µM at PFCDPK1(P.falciparum) (setting [6]) was found to be 0.9%. Besides, the remaining binding at 0.3 µM came out at 54% in assay [4] (setting [6]), 99% on BMPR1A (setting [6]) and 93% at WEE2 (setting [6]).
Take `CC#CC(=O)N1CCC[C@H]1c1nc(-c2ccc(C(=O)Nc3ccccn3)cc2)c2c(N)nccn12` [Acalabrutinib]: the remaining activity at 0.3 µM on PFCDPK1(P.falciparum) (setting [7]) stood at 23%. In addition, the remaining binding at 0.3 µM on MAP4K5 (setting [7]) turned out to be 90%; in [3] (setting [7]), 97%; at RAF1 (setting [7]), 75%; in assay [4] (setting [7]), 78%; on ANKK1 (setting [7]), 58%; at JNK2 (setting [7]), 95%. In addition, the remaining binding at 0.3 µM in [1] (setting [7]) was determined as 92%; on WEE2 (setting [7]) it was 89%; on MAPKAPK2 (setting [7]), 72%; at GSK3A (setting [7]), 74%; at EPHA7 (setting [7]), 99%; on ADCK4 (setting [7]), 96%. Moreover, the remaining binding at 0.3 µM is 96% in assay [2] (setting [7]) and 99% on PKAC-alpha (setting [7]). For the same compound, the IC50 at TXK was 273 nM; at CSK it was 6.65 µM; on LYNa it was over 10 µM; at LCK, 5200 nM.
